{"source": "ChEMBL document CHEMBL1144554", "about": "“In vitro cytotoxicity evaluation of some substituted isatin derivatives” (Bioorg Med Chem, 2007)", "key": {"U-937": {"test_system": "U-937", "assay": "Cytotoxicity against human U937 cells", "type": "ADME, cell-based"}, "HCT-116": {"test_system": "HCT-116", "assay": "Cytotoxicity against human HCT116 cells", "type": "cell-based"}, "Jurkat": {"test_system": "Jurkat", "assay": "Cytotoxicity against human Jurkat cells", "type": "cell-based"}, "MDA-MB-231": {"test_system": "MDA-MB-231", "assay": "Cytotoxicity against human MDA-MB-231 cells", "type": "cell-based"}, "MCF7": {"test_system": "MCF7", "assay": "Cytotoxicity against human MCF7 cells", "type": "cell-based"}, "PC-3": {"test_system": "PC-3", "assay": "Cytotoxicity against human PC3 cells", "type": "cell-based"}, "Caspase-7 (Homo sapiens)": {"biological_target": "T1, Caspase-7 (Homo sapiens) (UniProt P55210)", "T1 sequence (whole entry)": "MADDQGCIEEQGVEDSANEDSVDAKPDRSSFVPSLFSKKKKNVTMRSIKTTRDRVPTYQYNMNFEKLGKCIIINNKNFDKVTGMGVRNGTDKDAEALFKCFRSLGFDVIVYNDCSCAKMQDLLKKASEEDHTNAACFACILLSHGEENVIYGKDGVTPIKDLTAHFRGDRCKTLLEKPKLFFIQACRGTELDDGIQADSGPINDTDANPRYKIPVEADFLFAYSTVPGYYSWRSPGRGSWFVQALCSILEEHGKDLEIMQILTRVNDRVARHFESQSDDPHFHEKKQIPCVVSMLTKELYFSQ", "assay": "Activation of caspase 7 in Jurkat cells after 5 hrs by apoptosis assay", "type": "cell-based"}, "Caspase-3 (Homo sapiens)": {"biological_target": "T2, Caspase-3 (Homo sapiens) (UniProt P42574)", "T2 sequence (whole entry)": "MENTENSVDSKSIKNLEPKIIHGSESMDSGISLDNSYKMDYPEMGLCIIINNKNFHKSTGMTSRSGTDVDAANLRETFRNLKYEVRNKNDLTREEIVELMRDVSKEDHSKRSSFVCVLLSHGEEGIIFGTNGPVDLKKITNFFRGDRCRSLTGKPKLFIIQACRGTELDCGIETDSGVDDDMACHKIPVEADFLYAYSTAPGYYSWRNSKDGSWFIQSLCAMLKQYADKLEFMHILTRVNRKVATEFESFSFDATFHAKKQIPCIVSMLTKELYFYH", "assay": "Activation of caspase 3 in Jurkat cells after 5 hr by apoptosis assay", "type": "cell-based"}, "[1]": {"biological_target": "Cyclin-dependent kinase 2 (Homo sapiens) (UniProt P24941)", "assay": "Inhibition of CDK2 at 100 uM"}}, "note": "Active and inactive are the calls of the source. The rule behind the calls is not given here.", "data": [{"smiles": "O=C1Nc2c(Br)cc([N+](=O)[O-])cc2C1=O", "values": [{"measurement": "IC50", "setting": "U-937", "value": "> 369", "unit": "µM"}]}, {"smiles": "O=C1Nc2c(Br)cc(Br)cc2/C1=N/c1ccccc1", "values": [{"measurement": "IC50", "setting": "U-937", "value": 13.7, "unit": "µM"}]}, {"smiles": "O=C1Nc2ccc(I)cc2C1=O", "note": "[5-IODOISATIN]", "values": [{"measurement": "IC50", "setting": "U-937", "value": 53.4, "unit": "µM"}]}, {"smiles": "O=C1Nc2ccc(F)cc2C1=O", "note": "[5-FLUOROISATIN]", "values": [{"measurement": "IC50", "setting": "U-937", "value": 98.4, "unit": "µM"}]}, {"smiles": "CN1C(=O)C(=O)c2ccccc21", "values": [{"measurement": "IC50", "setting": "U-937", "value": 238, "unit": "µM"}]}, {"smiles": "COc1ccc2c(c1)C(=O)C(=O)N2", "note": "[5-METHOXYISATIN]", "values": [{"measurement": "IC50", "setting": "U-937", "value": 420, "unit": "µM"}]}, {"smiles": "O=C1Nc2c(I)cc(I)cc2C1=O", "values": [{"measurement": "IC50", "setting": "HCT-116", "value": 24, "unit": "µM"}, {"measurement": "IC50", "setting": "Jurkat", "value": 20.9, "unit": "µM"}, {"measurement": "IC50", "setting": "MDA-MB-231", "value": 41.8, "unit": "µM"}, {"measurement": "IC50", "setting": "MCF7", "value": 18.4, "unit": "µM"}, {"measurement": "IC50", "setting": "PC-3", "value": 71.9, "unit": "µM"}, {"measurement": "IC50", "setting": "U-937", "value": 7.85, "unit": "µM"}]}, {"smiles": "O=C1Nc2cc(Br)c(Br)cc2C1=O", "values": [{"measurement": "IC50", "setting": "HCT-116", "value": 37.3, "unit": "µM"}, {"measurement": "IC50", "setting": "Jurkat", "value": 20.2, "unit": "µM"}, {"measurement": "IC50", "setting": "MDA-MB-231", "value": 41.7, "unit": "µM"}, {"measurement": "IC50", "setting": "MCF7", "value": 20.2, "unit": "µM"}, {"measurement": "IC50", "setting": "PC-3", "value": 41, "unit": "µM"}, {"measurement": "IC50", "setting": "U-937", "value": 11.6, "unit": "µM"}]}, {"smiles": "O=C1Nc2c(cc(Br)c(Br)c2Br)C1=O", "values": [{"measurement": "Activity", "setting": "Caspase-7 (Homo sapiens)", "value": "Active"}, {"measurement": "IC50", "setting": "HCT-116", "value": 15.9, "unit": "µM"}, {"measurement": "IC50", "setting": "Jurkat", "value": 5.8, "unit": "µM"}, {"measurement": "IC50", "setting": "MDA-MB-231", "value": 21.8, "unit": "µM"}, {"measurement": "IC50", "setting": "MCF7", "value": 13.3, "unit": "µM"}, {"measurement": "Activity", "setting": "Caspase-3 (Homo sapiens)", "value": "Active"}, {"measurement": "IC50", "setting": "PC-3", "value": 25.9, "unit": "µM"}, {"measurement": "IC50", "setting": "U-937", "value": 6.76, "unit": "µM"}]}, {"smiles": "O=C1Nc2c(Br)cc(Br)cc2C1=O", "values": [{"measurement": "inhibition", "setting": "[1]", "value": 44, "unit": "%"}]}, {"smiles": "O=C1Nc2c(Br)cccc2C1=O", "values": [{"measurement": "IC50", "setting": "U-937", "value": 83, "unit": "µM"}]}, {"smiles": "O=C1Nc2ccc(Br)cc2C1=O", "values": [{"measurement": "IC50", "setting": "U-937", "value": 64.5, "unit": "µM"}]}, {"smiles": "O=C1Nc2cc(Br)ccc2C1=O", "values": [{"measurement": "IC50", "setting": "U-937", "value": 74.8, "unit": "µM"}]}, {"smiles": "Oc1[nH]c2ccccc2c1/N=N/c1ccccc1", "values": [{"measurement": "IC50", "setting": "U-937", "value": "> 211", "unit": "µM"}]}, {"smiles": "O=C1Nc2cc(Br)c([N+](=O)[O-])cc2C1=O", "values": [{"measurement": "IC50", "setting": "U-937", "value": 17.1, "unit": "µM"}]}, {"smiles": "O=C1Nc2ccc([N+](=O)[O-])cc2C1=O", "note": "[5-NITROISATIN]", "values": [{"measurement": "IC50", "setting": "U-937", "value": 132, "unit": "µM"}]}, {"smiles": "O=C1Nc2c(cc(Br)cc2[N+](=O)[O-])C1=O", "values": [{"measurement": "IC50", "setting": "U-937", "value": 257, "unit": "µM"}]}, {"smiles": "O=C1Nc2ccccc2C1=O", "note": "[ISATIN]", "values": [{"measurement": "IC50", "setting": "U-937", "value": 565, "unit": "µM"}]}, {"smiles": "O=C1Nc2cccc(Br)c2C1=O", "values": [{"measurement": "IC50", "setting": "U-937", "value": 214, "unit": "µM"}]}]}
